Columns and labels:
[1] = molecular target: adult mouse receptors with two δ-subunits (lacking the ε-subunit) (Mus musculus, UniProt P02716+P04756); experiment: outside-out patch clamp, relative peak current; type: biochemical; details: 300 μM ACh, -50 mV, 22-25°C, pH 7.3
[2] = molecular target: adult mouse muscle nAChR, (α1)2β1εδ (Mus musculus, UniProt P02716+P04756+P20782); experiment: outside-out patch clamp, relative peak current; type: biochemical; details: 300 μM ACh, -50 mV, 22-25°C, pH 7.3
adult mouse muscle nAChR, (α1)2β1εδ, sequence (P04756 21-457): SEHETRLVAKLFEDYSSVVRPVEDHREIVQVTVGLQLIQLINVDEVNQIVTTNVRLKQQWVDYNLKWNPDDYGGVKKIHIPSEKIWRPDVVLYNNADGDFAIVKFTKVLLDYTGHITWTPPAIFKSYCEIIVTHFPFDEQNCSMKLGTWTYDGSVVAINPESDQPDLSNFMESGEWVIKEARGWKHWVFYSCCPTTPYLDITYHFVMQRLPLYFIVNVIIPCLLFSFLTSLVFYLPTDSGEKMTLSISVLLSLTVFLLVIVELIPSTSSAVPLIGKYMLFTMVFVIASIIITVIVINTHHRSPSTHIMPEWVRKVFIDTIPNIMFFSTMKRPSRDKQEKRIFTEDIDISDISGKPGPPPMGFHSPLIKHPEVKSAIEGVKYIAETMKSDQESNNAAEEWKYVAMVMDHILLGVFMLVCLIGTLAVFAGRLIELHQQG
adult mouse muscle nAChR, (α1)2β1εδ, sequence (P20782 21-493): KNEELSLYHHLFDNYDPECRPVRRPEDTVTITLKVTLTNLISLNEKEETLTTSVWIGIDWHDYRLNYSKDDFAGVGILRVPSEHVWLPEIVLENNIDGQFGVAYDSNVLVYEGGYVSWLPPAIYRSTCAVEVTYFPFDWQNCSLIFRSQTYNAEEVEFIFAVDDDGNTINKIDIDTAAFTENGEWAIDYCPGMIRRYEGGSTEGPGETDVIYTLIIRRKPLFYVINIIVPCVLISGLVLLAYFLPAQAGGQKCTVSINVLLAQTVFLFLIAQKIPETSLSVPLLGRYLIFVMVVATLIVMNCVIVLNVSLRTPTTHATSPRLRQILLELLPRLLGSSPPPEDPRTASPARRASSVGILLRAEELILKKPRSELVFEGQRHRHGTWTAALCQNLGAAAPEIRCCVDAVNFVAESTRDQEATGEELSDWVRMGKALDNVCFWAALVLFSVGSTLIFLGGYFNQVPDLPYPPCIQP
adult mouse muscle nAChR, (α1)2β1εδ, sequence (P02716 25-520): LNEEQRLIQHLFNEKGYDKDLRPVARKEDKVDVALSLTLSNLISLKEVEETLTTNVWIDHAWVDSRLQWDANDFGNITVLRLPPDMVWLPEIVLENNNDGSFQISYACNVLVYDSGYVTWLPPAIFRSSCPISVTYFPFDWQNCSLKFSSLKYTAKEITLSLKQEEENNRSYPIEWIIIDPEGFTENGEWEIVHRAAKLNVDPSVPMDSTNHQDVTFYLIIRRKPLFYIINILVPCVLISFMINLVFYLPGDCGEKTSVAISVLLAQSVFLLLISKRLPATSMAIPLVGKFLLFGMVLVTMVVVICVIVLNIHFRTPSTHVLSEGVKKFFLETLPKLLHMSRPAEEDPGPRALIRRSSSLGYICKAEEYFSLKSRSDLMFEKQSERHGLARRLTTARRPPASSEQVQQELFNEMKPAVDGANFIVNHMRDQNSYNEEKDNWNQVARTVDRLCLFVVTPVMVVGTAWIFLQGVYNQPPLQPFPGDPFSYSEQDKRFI
adult mouse muscle nAChR, (α1)2β1εδ, sequence (P09690 24-501 partner): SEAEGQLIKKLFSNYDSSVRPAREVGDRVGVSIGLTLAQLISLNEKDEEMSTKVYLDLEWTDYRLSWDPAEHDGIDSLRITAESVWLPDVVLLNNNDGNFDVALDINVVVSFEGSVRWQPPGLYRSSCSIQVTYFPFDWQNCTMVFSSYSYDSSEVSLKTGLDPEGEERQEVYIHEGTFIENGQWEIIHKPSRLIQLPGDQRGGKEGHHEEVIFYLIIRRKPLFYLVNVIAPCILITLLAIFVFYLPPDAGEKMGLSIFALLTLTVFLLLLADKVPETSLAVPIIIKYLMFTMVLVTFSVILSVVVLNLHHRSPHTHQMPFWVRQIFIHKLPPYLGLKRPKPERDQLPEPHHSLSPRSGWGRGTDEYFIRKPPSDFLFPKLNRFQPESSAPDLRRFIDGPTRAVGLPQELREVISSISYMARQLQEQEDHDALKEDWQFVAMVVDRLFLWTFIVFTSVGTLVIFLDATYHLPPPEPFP

adult mouse receptors with two δ-subunits (lacking the ε-subunit), sequence (P04756 21-457): as the sequence (P04756 21-457) above
adult mouse receptors with two δ-subunits (lacking the ε-subunit), sequence (P02716 25-520): as the sequence (P02716 25-520) above
adult mouse receptors with two δ-subunits (lacking the ε-subunit), sequence (P09690 24-501 partner): as the sequence (P09690 24-501 partner) above

C=CC[N+]1([C@H]2C[C@H]3[C@@H]4CC[C@H]5C[C@H](O)[C@@H](N6CCOCC6)C[C@]5(C)[C@H]4CC[C@]3(C)[C@H]2OC(C)=O)CCCC1 [rocuronium]
current relative to control at 40 nM [1]: 0.16 ± 0.01 | current relative to control at 40 nM [2]: 0.32 ± 0.05
